Reference: ChEMBL document CHEMBL1152514, “Anti-tumor-initiating effects of phenolic compounds isolated from the bark of Picea jezoensis var. jezoensis” (2009)
The source made the active and inactive calls. The rule behind the calls is not given here.

System: not listed separately
Assay: Antitumor initiating activity in human Chang cells assessed as ratio of inhibition of cellular transformation in presence of NOR1 to compound and NOR1 at 350 nmol treated 1 min before NOR1 addition measured after 1 hr by light microscopy
Type: functional

SMILES	Ratio
CC(C)c1cc2c(cc1O)[C@@]1(C)CCC[C@@](C)(C(=O)O)[C@@H]1CC2	2
CC(=O)Oc1cc(OC(C)=O)c2c(c1)[C@@H]1C3C(=CC(=O)C[C@H]1c1ccc(OC(C)=O)c(OC(C)=O)c1)O[C@H](c1ccc(OC(C)=O)c(OC(C)=O)c1)[C@@H](O)[C@H]23 (stereo not given in full)	1.8
CC(=O)Oc1cc(OC(C)=O)cc([C@H]2c3c(/C=C/c4ccc(OC(C)=O)c(OC(C)=O)c4)cc(OC(C)=O)cc3O[C@@H]2c2ccc(OC(C)=O)c(OC(C)=O)c2)c1	1.9
CC(=O)Oc1cc(/C=C/c2ccc3c(c2)O[C@H](c2ccc(OC(C)=O)c(OC(C)=O)c2)[C@@H](c2cc(OC(C)=O)cc(OC(C)=O)c2)O3)cc(OC(C)=O)c1	1.8
CC(=O)Oc1cc(OC(C)=O)cc([C@@H]2c3c(cc(OC(C)=O)c4c3O[C@H](c3ccc(OC(C)=O)c(OC(C)=O)c3)[C@@H](O)C4)O[C@H]2c2ccc(OC(C)=O)c(OC(C)=O)c2)c1	1.9
CC(=O)Oc1cc(OC(C)=O)cc([C@H]2c3c(cc(OC(C)=O)c4c3O[C@H](c3ccc(OC(C)=O)c(OC(C)=O)c3)[C@@H](O)C4)O[C@@H]2c2ccc(OC(C)=O)c(OC(C)=O)c2)c1	1.9
CC(=O)Oc1ccc(/C=C/c2cc(OC(C)=O)cc3c2[C@H](c2cc(OC(C)=O)cc(OC(C)=O)c2)[C@@H](c2ccc(OC(C)=O)c(OC(C)=O)c2)O3)cc1	1.8
COc1cc([C@H]2Oc3cc(C(=O)O)ccc3O[C@@H]2CO)ccc1O [3-O-METHYL ISOAMERICANOIC ACID A]	1.7
O=C1c2c(O)cc(O)cc2O[C@H](c2ccc(O)c(O)c2)[C@H]1O [(+)-TAXIFOLIN]	2.5
Oc1cc(O)cc(/C=C/c2ccc3c(c2)O[C@H](c2ccc(O)c(O)c2)[C@@H](c2cc(O)cc(O)c2)O3)c1 [CASSIGAROL E]	2.1
O=C(O)/C=C/c1ccc(O)cc1 [COUMARIC ACID]	1.9
COc1cc(/C=C/C(=O)CC(=O)/C=C/c2ccc(O)c(OC)c2)ccc1O [CURCUMIN]	2.1
COc1cc([C@@H]2Oc3c(OC)cc(CCCO)cc3[C@H]2CO)ccc1O [DIHYDRODEHYDRODICONIFERYL ALCOHOL]	1.8
COc1cc([C@H]2c3cc(O)c(OC)cc3C[C@@H](CO)[C@@H]2CO)ccc1O [ISOLARICIRESINOL]	2
Oc1cc(O)cc([C@@H]2c3c(cc(O)c4c3O[C@H](c3ccc(O)c(O)c3)[C@@H](O)C4)O[C@H]2c2ccc(O)c(O)c2)c1 [JEZONOCINOL A]	2.7
Oc1cc(O)cc([C@H]2c3c(cc(O)c4c3O[C@H](c3ccc(O)c(O)c3)[C@@H](O)C4)O[C@@H]2c2ccc(O)c(O)c2)c1 [JEZONOCINOL B]	2.7
O=C1C=C2O[C@H](c3ccc(O)c(O)c3)[C@@H](O)[C@@H]3c4c(O)cc(O)cc4[C@H](C23)[C@H](c2ccc(O)c(O)c2)C1 (stereo not given in full) [JEZONOCINOL C]	2.3
O=C1C=C(/C=C/c2ccc(O)c(O)c2)[C@@H]2C(=O)[C@H]1[C@H](c1ccc(O)c(O)c1)[C@H]2c1cc(O)cc(O)c1 [JEZONODIONE]	2.2
Oc1cc2c3c(c4cc(O)cc5c4c(c3c1)[C@@H](c1ccc(O)c(O)c1)O5)[C@@H](c1ccc(O)c(O)c1)O2 [JEZONOFOL]	2.3
COc1cc(/C=C2/C(=O)O[C@H](c3ccc(O)c(O)c3)[C@H]2c2cc(O)cc(O)c2)ccc1O [JEZONOLIDE]	2.1
COc1cc(C[C@H]2CO[C@H](c3ccc(O)c(OC)c3)[C@H]2CO)ccc1O [LARICIRESINOL]	2
Oc1cc(O)cc(/C=C/c2ccc(O)c(O)c2)c1 [PICEATANNOL]	2
O=Cc1ccc(O)c(O)c1 [PROTOCATECHUALDEHYDE]	1.8
O=C(O)c1ccc(O)c(O)c1 [PROTOCATECHUIC ACID]	1.8
O=c1c(O)c(-c2ccc(O)c(O)c2)oc2cc(O)cc(O)c12 [QUERCETIN]	2.9
Oc1ccc(/C=C/c2cc(O)cc3c2[C@H](c2cc(O)cc(O)c2)[C@@H](c2ccc(O)c(O)c2)O3)cc1 [SCIRPUSIN A]	2
Oc1cc(O)cc([C@H]2c3c(/C=C/c4ccc(O)c(O)c4)cc(O)cc3O[C@@H]2c2ccc(O)c(O)c2)c1 [TRANS-SCIRPUSIN B]	2.2

System: Mus musculus
Assay: Anticancer activity against peroxynitrite/TPA-induced skin cancer in ICR mouse assessed as delay in tumor promotion at 0.187 mg/day, po administered for 2 weeks
Type: functional, organism-based

SMILES	Activity
Oc1cc(O)cc([C@H]2c3c(cc(O)c4c3O[C@H](c3ccc(O)c(O)c3)[C@@H](O)C4)O[C@@H]2c2ccc(O)c(O)c2)c1 [JEZONOCINOL B]	Active

System: not listed separately
Assay: Anticancer activity against peroxynitrite/TPA-induced skin cancer in ICR mouse assessed as occurrence of papilloma at 0.187 mg/day, po administered for 2 weeks measured on week 11
Type: functional

SMILES	Activity
Oc1cc(O)cc([C@H]2c3c(cc(O)c4c3O[C@H](c3ccc(O)c(O)c3)[C@@H](O)C4)O[C@@H]2c2ccc(O)c(O)c2)c1 [JEZONOCINOL B]	27%

System: not listed separately
Assay: Anticancer activity against peroxynitrite/TPA-induced skin cancer in ICR mouse assessed as average number of papilloma per mouse at 0.187 mg/day, po administered for 2 weeks measured on week 20
Type: functional

SMILES	Activity
Oc1cc(O)cc([C@H]2c3c(cc(O)c4c3O[C@H](c3ccc(O)c(O)c3)[C@@H](O)C4)O[C@@H]2c2ccc(O)c(O)c2)c1 [JEZONOCINOL B]	3.1
